This note sets out measurements from patent US20240270779A1, “NOVEL PHENYLPROPANOID COMPOUND” (NABOCUL COSMETICS CO., LTD., priority 2021, published 2024).

A word on the inhibition: it is the percentage by which the read-out fell short of the control.

Data set [1] has as its system B16 melanoma cells. As to the kind of experiment: Amount of melanin produced in B16 melanoma cells (melanogenesis inhibition). Format: cell-based, mouse. Particulars: for inhibition at 10 µM: concentration 10 μM. On the procedure: (§1) In this test, B16 melanoma cells were used. A B16 melanoma cell, a mouse skin melanoma-derived cell line, has melanogenic capacity. B16 melanoma cells were cultured in a DMEM medium (containing 10% FBS, 100 U/mL penicillin and […] streptomycin) in the presence of 5% CO2 at 37° C. and saturated humidity.
(§2) Ceratonia siliqua B was diluted with a DMEM medium to obtain sample solutions with different concentrations of 1 μM, 5 μM, 10 μM, 50 μM and 100 μM.
A single cell suspension of B16 melanoma cells was prepared, and 4×10^4 B16 melanoma cells were seeded in each well of a 12-well microplate. After culturing overnight in a CO2 incubator, the supernatant was removed, and the wells were divided into a blank control group, a positive control group and a test group. A 1 mL portion of a DMEM medium was added to each well of the blank control group, a 1 mL portion of each of solutions of L-ascorbic acid dissolved in DMEM medium at different concentrations (a concentration of L-ascorbic acid: 0.1 μM, 5 μM, 10 μM) was added to each well of the positive control group, and a 1 mL portion of each of the sample solutions from the above (b) was added to each well of the test group. After culturing for 48 hours, the supernatant was removed from each well followed by washing twice with PBS buffer, treatment with trypsin and addition of 1.2 mL of PBS buffer to prepare a single cell suspension. A 200 μL aliquot of this cell suspension was taken to determine the protein content. The remaining cell suspension was centrifuged at 3000 rpm for 5 minutes to remove the supernatant. Thereafter, 250 μL of a 1 M NaOH solution containing 1% DMSO was added thereto and dissolved for 30 minutes in a water bath heated to 80° C. A 200 μL aliquot of this solution was taken and the absorbance at 405 nm (Atest group, Apositive control group, Ablank control group) was measured. The test was performed in triplicate (3 wells) for the blank control group, for the positive control group and for each concentration of the sample solution in the test group (n=3).
The intracellular melanogenesis inhibition rate (%) was determined for the test group and the positive control group by the following equations:
[formula] • wherein Atest group is the absorbance of the test group, Apositive control group is the absorbance of the positive control group, and Ablank control group is the absorbance of the blank control group.

For data set [2], the system named is B16 melanoma cells. The data set is described as follows: MTT cytotoxicity test on B16 melanoma cells. Format: cell-based, mouse. The settings on record: concentrations of 1 to 100 μM, 48 hours, FIG. 13. On the procedure:
as §1, §2
(§3) First, an MTT test was performed to confirm the presence or absence of cytotoxicity of Ceratonia siliqua B against B16 melanoma cells. B16 melanoma cells that had been subcultured for three generations or more were treated with trypsin to prepare a single cell suspension having a concentration of 3×10^4 cells/mL. A 100 μL portion of this cell suspension was seeded in each well of a 96-well microplate and cultured overnight in a CO2 incubator. The supernatant was removed from each well, and the wells were divided into a control (blank control) group and a test group. […] After 4 hours, the supernatant was removed, a 150 μL portion of DMSO was added to each well, and the absorbance at 570 nm was measured with a microplate reader. […]
(§4) The cell viability of the test group was calculated taking the value for the control (blank control) group as 100.

The nature of data set [3]: DPPH radical scavenging activity. Format: biochemical. Particulars: sample solutions 1-100 μM, 30 minutes at room temperature in the dark, absorbance 517 nm, FIG. 10. On the procedure: Ceratonia siliqua B obtained in Example 2 was used to measure the DPPH radical scavenging activity of Ceratonia siliqua B.
First, Ceratonia siliqua B obtained in Example 2 was accurately weighed out and dissolved in methanol to prepare a sample solution with a concentration of 100 μM. This sample solution having a concentration of 100 μM was further diluted with methanol to obtain sample solutions with different concentrations of 1 μM, 5 μM, 10 μM and 50 μM. Next, 2 mg of DPPH (2,2-diphenyl-1-picrylhydrazyl) was dissolved in 50 mL of methanol to prepare a 100 μM DPPH solution.
A 190 μL portion of the DPPH solution was placed in each of wells of a 96-well microplate, and 10 μL of the sample solution was quickly added thereto. […] Thereafter, the absorbance at 517 nm (Asample) was measured with a microplate reader. The reaction solution to which methanol was added instead of the sample solution was used as a blank, and the absorbance of the blank (Ablank) was measured. In addition, the absorbance (Asample blank) due to coloration of the sample solution itself at each concentration was measured as a sample blank. […]
The radical scavenging rate (%) was determined by the following equation.
[formula] • wherein Ablank is the absorbance of the blank, Asample is the absorbance of the sample solution, and Asample blank is the absorbance of the sample blank.
Background: The DPPH test is a chemical assay of radical scavenging.

The subject of data set [4] is HepG2 cells. As to the kind of experiment: Measurement of ROS in HepG2 cells (hydrogen peroxide induced, DCFH-DA). Format: cell-based, human. Particulars: 1-100 μM, 24 hours pre-culture, 400 μM hydrogen peroxide 90 minutes, FIG. 12. On the procedure:
Ceratonia siliqua B obtained in Example 2 was used to examine the effect of Ceratonia siliqua B on the generation of reactive oxygen species (ROS) in living cells.
(§5) In this test, a HepG2 cell, a human liver-derived tumor cell line was used as a living cell. HepG2 cells were cultured in a DMEM medium (containing 10% FBS, 100 U/mL penicillin and […] streptomycin) in the presence of 5% CO2 at 37° C. and saturated humidity.
A HepG2 cell suspension having a concentration of 1×10^5 cells/mL was prepared, and a 100 μL portion of the cell suspension was seeded in each well of a 96-well microplate and cultured in a CO2 incubator for 24 hours. These wells were divided into a blank control group, a positive control group and a test group. […] Thereafter, the medium in each well was removed, 100 μL of PBS was added thereto, and fluorescence intensity at 535 nm was measured at an excitation wavelength of 485 nm. The amount of ROS generated in the positive control group and the test group was calculated taking the fluorescence intensity of the blank control group as 1.0 (basal). […]

Data set [5] relates to HepG2 cells. The data set is described as follows: MTT cytotoxicity test on HepG2 cells. Format: cell-based, human. The settings on record: concentrations of 1 to 100 μM, 48 hours, FIG. 11. The method, then:
as §5, §2
as §3, with “HepG2” for “B16 melanoma”, “have” for “had”, “1×10^5” for “3×10^4”, “cultured” for “cultured overnight”, “incubator for 24 hours. After culturing, the” for “incubator. The”, “removed,” for “removed from each well,”
as §4
(In general: Formazan colour is commonly taken as a measure of viable cells.)

Setting [6] is: Mus musculus, B16, 48 h, 48 hours, B16 melanoma cells, read-out: Melanogenesis inhibition rate (%).

Bounds are passed on as bounds.

For `COc1cc(/C=C/COC(=O)C(C)C)cc(OC)c1O[C@@H]1O[C@H](CO)[C@@H](O)[C@H](O)[C@H]1O` [Ceratonia siliqua B], the inhibition at 10 µM in the data set with B16 melanoma cells [1] (setting [6]) came to 20.2%. In the data set with B16 melanoma cells [1] (Mus musculus, B16, 48 h, concentration 50 μM, 48 hours, B16 melanoma cells, read-out: Melanogenesis inhibition rate (%)), the inhibition at 50 µM was determined as 25.6%. Besides, the inhibition at 100 µM in the data set on B16 melanoma cells [1] (Mus musculus, B16, 48 h, concentration 100 μM, 48 hours, B16 melanoma cells, read-out: Melanogenesis inhibition rate (%)) was greater than 30%. Moreover, the “inhibition effect on melanogenesis in B16 melanoma cells (in words)” value in the data set on B16 melanoma cells [1] (concentration of 10 to 100 μM, P<0.05) is given as “significant inhibition effect on melanogenesis”. For the same compound, in the data set with B16 melanoma cells [2], the “cytotoxicity against B16 melanoma cells (MTT, cell viability)” value is reported as “no cytotoxicity”. Besides, in data set [3], the “DPPH radical scavenging activity” value is on record as “scavenge DPPH radicals in a concentration-dependent manner”. In addition, the “ROS generation inhibiting effect in HepG2 cells” value with HepG2 cells [4] was “inhibited the increase in ROS induced by hydrogen peroxide in HepG2 cells in a concentration-dependent manner”. For the same compound, the “cytotoxicity against HepG2 cells (MTT, cell viability)” value in the data set on HepG2 cells [5] is given as “no cytotoxicity”.

As for `O=C1O[C@H]([C@@H](O)CO)C(O)=C1O` [L-Ascorbic acid, L-ascorbic acid, reference compound], in the data set on B16 melanoma cells [1] (Mus musculus, B16, 48 h, concentration 0.1 μM, 48 hours, B16 melanoma cells, read-out: Melanogenesis inhibition rate (%)), the inhibition at 0.1 µM came out at 9.2%. For the same compound, the inhibition at 5 µM with B16 melanoma cells [1] (Mus musculus, B16, 48 h, concentration 5 μM, 48 hours, B16 melanoma cells, read-out: Melanogenesis inhibition rate (%)) was 15.6%. In addition, in the data set on B16 melanoma cells [1] (setting [6]), the inhibition at 10 µM was found to be 32.8%.
